Source: patent publication US5110800A, “Derivatives of erythromycylamine” (Eli Lilly and Company, priority 1989, dated 1992)

Tests used:
Escherichia coli EC14 = assay: MIC, standard agar-dilution assay; format: cell-based; conditions: Table IV; agar dilution
Streptococcus pyogenes = assay: Oral ED50 against experimental infection in mice; format: in vivo; conditions: two doses, protects 50% of animals
Method: (§1) The new derivatives of this invention have also shown in vivo antimicrobial activity against experimental bacterial infections. When two doses of test compound were administered to mice in experimental infections, the activity observed was measured as an ED50 value [effective dose in mg/kg to protect 50% of the test animals: see Warren Wick, et al., J. Bacteriol. 81, 233-235 (1961)].

Staphylococcus aureus = assay: Oral ED50 against experimental infection in mice; format: in vivo; conditions: two doses, protects 50% of animals
Method: as §1

Streptococcus pneumoniae = assay: Oral ED50 against experimental infection in mice; format: in vivo; conditions: two doses, protects 50% of animals
Method: as §1

[1] = test system: Staphylococcus aureus V41; assay: MIC, standard agar-dilution assay; format: cell-based; conditions: Table IV; penicillin-resistant strain; inducibly erythromycin-resistant
Excerpt: (§2) In addition to excellent in vitro activity against erythromycin-sensitive bacteria, several members of this new series have shown in vitro activity against erythromycin-resistant strains. These include strains which are inducibly-resistant to erythromycin (S. aureus V41 and X400 and S. epidermidis EPI1) and even strains which are constitutively-resistant (S. epidermidis 270).

[2] = test system: Staphylococcus aureus X400; assay: MIC, standard agar-dilution assay; format: cell-based; conditions: Table IV; methicillin-resistant strain; inducibly erythromycin-resistant
Excerpt: as §2

[3] = test system: Staphylococcus epidermidis 270; assay: MIC, standard agar-dilution assay; format: cell-based; conditions: Table IV; constitutively erythromycin-resistant
Excerpt: as §2

[4] = test system: Haemophilus influenzae C.L.; assay: MIC, standard agar-dilution assay; format: cell-based; conditions: Table IV; ampicillin-sensitive strain
[5] = test system: Haemophilus influenzae 76; assay: MIC, standard agar-dilution assay; format: cell-based; conditions: Table IV; ampicillin-resistant strain
[6] = test system: Staphylococcus aureus S13E; assay: MIC, standard agar-dilution assay; format: cell-based; conditions: Table IV; agar dilution
[7] = test system: Streptococcus sp. group D X66; assay: MIC, standard agar-dilution assay; format: cell-based; conditions: Table IV; agar dilution
[8] = test system: Streptococcus pyogenes C203; assay: MIC, standard agar-dilution assay; format: cell-based; conditions: Table IV; agar dilution
[9] = test system: Staphylococcus aureus X1.1; assay: MIC, standard agar-dilution assay; format: cell-based; conditions: Table IV; agar dilution
[10] = test system: Streptococcus pneumoniae Park I; assay: MIC, standard agar-dilution assay; format: cell-based; conditions: Table IV; agar dilution
[11] = test system: Staphylococcus epidermidis 222; assay: MIC, standard agar-dilution assay; format: cell-based; conditions: Table IV; agar dilution
[12] = test system: Klebsiella pneumoniae X68; assay: MIC, standard agar-dilution assay; format: cell-based; conditions: Table IV; agar dilution
[13] = test system: Streptococcus sp. group D 2041; assay: MIC, standard agar-dilution assay; format: cell-based; conditions: Table IV; agar dilution

For “Endo- and Exo-9-Deoxo-9-[(bicyclo[2.2.1]hept-2-en-5-yl-methyl)amino]erythromycin [Compound 19]”, the “minimal inhibitory concentration (MIC)” value (Escherichia coli EC14) was 64 µg/mL, the “Oral ED50” value (Streptococcus pyogenes) was 16.6 mg/kg and the “Oral ED50” value (Staphylococcus aureus) was greater than 50 mg/kg. For the same substance, the “Oral ED50” value (Streptococcus pneumoniae) was 25.0 mg/kg, the “minimal inhibitory concentration (MIC)” value [1] was “-- (-- = >128)” and the “minimal inhibitory concentration (MIC)” value [2] was “-- (-- = >128)”. The “minimal inhibitory concentration (MIC)” value [3] was “-- (-- = >128)”, the “minimal inhibitory concentration (MIC)” value [4] was 8 µg/mL and the “minimal inhibitory concentration (MIC)” value [5] was 8 µg/mL. For the same substance, the “minimal inhibitory concentration (MIC)” value [6] was 2 µg/mL, the “minimal inhibitory concentration (MIC)” value [7] was 1 µg/mL and the “minimal inhibitory concentration (MIC)” value [8] was 0.25 µg/mL. The “minimal inhibitory concentration (MIC)” value [9] was 2 µg/mL, the “minimal inhibitory concentration (MIC)” value [10] was 0.015 µg/mL and the “minimal inhibitory concentration (MIC)” value [11] was 1 µg/mL. For the same substance, the “minimal inhibitory concentration (MIC)” value [12] was “-- (-- = >128)” and the “minimal inhibitory concentration (MIC)” value [13] was 8 µg/mL.
